Literature values in patent US20230354819A1 (priority 2020, published 2023).
Bridge positions count the residues as written; N and C are the ends. Square brackets hold non-standard residues; d marks the D form. Peptide text beside a SMILES is read from it. * marks the point of attachment. ξ: configuration not given here. Pentadecanoyl(3ξ-OH,15-Gua) = N=C(N)NCCCCCCCCCCCCC(O)CC(=O)*; d(aThr) = C[C@@H](O)[C@@H](N)C(=O)O; Thr(3ξ) = CC(O)[C@H](N)C(=O)O; ξY = NC(Cc1ccc(O)cc1)C(=O)O

Key:
Staphylococcus aureus = test system: Staphylococcus aureus; design: unit not given here; details: variety of clinically relevant fungi and gram-positive bacteria such a Staphylococcus aureus; ChemMedChem 7, 871-882, 2012
[1] = test system: plant pathogenic fungi such as Fusarium oxysporum, Aspergillus niger, Aspergillus oryzae, and Penicillium thomii; details: J. Antibiotics 49(2), 129-135, 1996; 50(3), 220-228, 1997
Fusarium oxysporum = details: WO 2006/016558

SMILES	MIC value range (Staphylococcus aureus)	inhibition of plant pathogenic fungi [1]	inhibition of growth of Fusarium oxysporum (Fusarium oxysporum)
CC(C)[C@@H]1NC(=O)[C@@H](C(C)C)NC(=O)[C@@H](NC(=O)CC(O)CCCCCCCCCCCCN=C(N)N)[C@@H](C)OC(=O)[C@@H](C)NC(=O)[C@@H](CC(N)=O)NC(=O)[C@@H]([C@@H](C)O)NC1=O (stereo partly shown) [fusaricidin A] ({Pentadecanoyl(3ξ-OH,15-Gua)}-T[dV]V[d(aThr)][dN][dA]; ester 1-C)	0.78-3.12	inhibit plant pathogenic fungi	inhibit growth
CC1OC(=O)[C@@H](C)NC(=O)[C@@H](CC(N)=O)NC(=O)[C@@H]([C@H](C)O)NC(=O)C(Cc2ccc(O)cc2)NC(=O)[C@@H](C(C)C)NC(=O)[C@H]1NC(=O)CC(O)CCCCCCCCCCCCN=C(N)N (stereo partly shown) [fusaricidin C] ({Pentadecanoyl(3ξ-OH,15-Gua)}-[Thr(3ξ)][dV][ξY][dT][dN][dA]; ester 1-C)	–	inhibit plant pathogenic fungi	–
CC(C)[C@@H]1NC(=O)[C@@H](C(C)C)NC(=O)[C@@H](NC(=O)CC(O)CCCCCCCCCCCCN=C(N)N)C(C)OC(=O)[C@@H](C)NC(=O)[C@@H](CCC(N)=O)NC(=O)[C@@H]([C@H](C)O)NC1=O (stereo in doubt) [fusaricidin B]	–	inhibit plant pathogenic fungi	inhibit growth
CC1OC(=O)[C@@H](C)NC(=O)[C@@H](CCC(N)=O)NC(=O)[C@@H]([C@H](C)O)NC(=O)C(Cc2ccc(O)cc2)NC(=O)[C@@H](C(C)C)NC(=O)[C@H]1NC(=O)CC(O)CCCCCCCCCCCCN=C(N)N (stereo partly shown) [fusaricidin D] ({Pentadecanoyl(3ξ-OH,15-Gua)}-[Thr(3ξ)][dV][ξY][dT][dQ][dA]; ester 1-C)	–	inhibit plant pathogenic fungi	–
